The target in experiment [1] is T1, sigma receptors (Cavia porcellus, UniProt Q60492).
T1 construct: Brain tissue was prepared from male Hartley guinea pigs; from tissue; host or cells: brain membranes of male Hartley guinea pigs (22,000 x g pellet)
The experiment is described as follows: sigma receptor binding, [^3 H](+)-pentazocine, guinea pig brain membranes. Details: species or system guinea pig (male Hartley). The conditions noted are these: for Ki: mean of at least two separate determinations in triplicate, EBDA/LIGAND; for inhibition at 10 µM: read-out: Percent Inhibition of [^3 H](+)-pentazocine binding. The procedure: Brain tissue was prepared from male Hartley guinea pigs (Hazelton Labs, Denver, Pa.) which were anesthetized with CO2 and sacrificed by decapitation. All animal care and use procedures were in accord with the "Guide for the Care and Use of Laboratory Animals" (NIH Publ. No. 86-23, 1985). Homogenization was performed in 10 volumes (wt/vol) of 0.32M sucrose with a Brinkmann Polytron at setting 5, 30 sec. The homogenate was centrifuged at 900×g for 10 min at 4° C., and the supernatant was collected and centrifuged at 22,000×g for 20 min at 4° C. The pellet was resuspended in 10 volumes of Tris-HCl buffer (50 mM, pH 7.4), incubated at 37° C. for 30 min, and centrifuged at 22,000×g for 20 min at 4° C. Following this, the pellet was resuspended in Tris buffer and frozen in 5-10 mL aliquots corresponding to a tissue concentration of 100 mg/mL, at -70° C. Binding characteristics of the membranes were stable for at least one month when stored at -70° C.
On the day of the assay, membrane aliquots were thawed, resuspended in fresh Tris-HCl buffer and stored on ice until use. Each assay tube contained 100 μL of [^3 H]-(+)-pentazocine at a final concentration of approximately 0.5 nM or 100 μL of [^3 H]-di(2-tolyl)guanidine (DTG) at a final concentration of approximately 4 nM, 100 μL of various concentrations of the compounds of interest, 500 μL of the tissue suspension and 300 μL of buffer to a final assay volume of 1 mL and a final tissue concentration of approximately 8 mg/tube, corresponding to approximately 0.15 mg protein/tube. Non-specific binding was defined by addition of a final concentration of 1 μM haloperidol to blank tubes for [^3 H](+)-pentazocine assay or by addition of a final concentration of 10 μM haloperidol to blank tubes for [^3 H]DTG assay. All tubes were incubated at 37° C. for 150 min in the [^3 H](+)-pentazocine assay or at 25° C. for 90 min in the [^3 H]DTG assay before termination of the reaction by rapid filtration over Whatman GF/B glass fiber filters that were presoaked in a solution of 0.5% polyethylenimine for at least 1 hr prior to use. Filters were washed with three 4 ml volumes of cold Tris-HCl buffer.
Following addition of scintillation cocktail, samples were allowed to equilibrate for at least 4 hr. The amount of bound radioactivity was determined by liquid scintillation spectrometry using a Beckman LS 5000 TA liquid scintillation counter with an efficiency for tritium of approximately 60%. The results are reported as a percent (%) inhibition of binding at 10 μM.
Scatchard parameters and inhibition constants (Ki values) for the binding of test compounds were also calculated using the EBDA/LIGAND program (McPherson, J. Pharmacol. Meth. 1985, 14, 213-228), purchased from Elsevier/Biosoft, Inc The Ki values are expressed as the mean of at least two separate determinations performed in triplicate.

Experiment [2] concerns the target sigma receptors. Put plainly: sigma receptor binding, [^3 H]di(2-tolyl)guanidine (DTG), guinea pig brain membranes. Further details: species or system guinea pig (male Hartley). The conditions noted are these: [^3 H]DTG approx. 4 nM, 25° C., 90 min; for Ki: mean of at least two separate determinations in triplicate, EBDA/LIGAND; for Percent Inhibition of [^3 H]DTG binding: at 10 μM.
Experimental: Brain tissue was prepared from male Hartley guinea pigs (Hazelton Labs, Denver, Pa.) which were anesthetized with CO2 and sacrificed by decapitation. […] Homogenization was performed in 10 volumes (wt/vol) of 0.32M sucrose with a Brinkmann Polytron at setting 5, 30 sec. The homogenate was centrifuged at 900×g for 10 min at 4° C., and the supernatant was collected and centrifuged at 22,000×g for 20 min at 4° C. The pellet was resuspended in 10 volumes of Tris-HCl buffer (50 mM, pH 7.4), incubated at 37° C. for 30 min, and centrifuged at 22,000×g for 20 min at 4° C. Following this, the pellet was resuspended in Tris buffer and frozen in 5-10 mL aliquots corresponding to a tissue concentration of 100 mg/mL, at -70° C. Binding characteristics of the membranes were stable for at least one month when stored at -70° C.

The subject of experiment [3] is apomorphine-induced climbing. The experiment is described as follows: apomorphine-induced climbing assay. In kind it is in vivo, mice (male, Swiss-Webster). The conditions noted are these: Mus musculus, ip; test compound i.p.; apomorphine 5.5 mg/kg s.c.; rated 20-30 min post drug; Dunnett's Test P<0.05; read-out: Apomorphine-induced climbing assay MED (minimal effective dose for inhibition). The procedure:
(§1) Representative compounds of the invention were tested in vivo in the apomorphine-induced climbing assay and the apomorphine-induced stereotypy assay using the following procedures.
(§2) Male, Swiss-Webster mice (Taconic Farms, Germantown, New York), weight 20-30 grams, were grouped housed in colony facilities for a minimum of two days prior to testing. The colony facility was maintained on a 12 hour light/dark cycle (light: 0600-1800 hours) with water and Agway Prolab 100 rat chow available ad libitum. Each mouse was given an injection of test compound i.p. followed immediately by a s.c. injection of apomorphine 5.5 mg/kg or vehicle. All drugs were administered in a volume of 10 ml/kg body weight. The mice were then placed in individual cylindrical stainless steel climbing cages; 14.5 cm tall, 12 cm in diameter, with walls consisting of 1/16" O.D. bars spaced 0.8-1.0 cm apart, and were allowed to habituate to this environment for 20 minutes. […] Briefly, a (0) was scored for absence of any stereotypic behavior, infrequent stereotypic movements were scored as (1), a (2) was scored for permanent sniffing and a score of (3) indicated intense and continuous stereotypic behavior. Treatment means for the 10 minute totals were calculated for climbing and stereotypy. […] A minimal effective dose (MED) for inhibition was determined for each parameter based on these analyses.

Experiment [4] has as its system apomorphine-induced stereotypy. Put plainly: apomorphine-induced stereotypy assay. In kind it is in vivo, mice (male, Swiss-Webster). The conditions noted are these: Mus musculus, ip; test compound i.p.; apomorphine 5.5 mg/kg s.c.; rated 20-30 min post drug; Dunnett's Test P<0.05; read-out: Apomorphine-induced stereotypy assay MED (minimal effective dose for inhibition). As for the experimental part:
as §1, §2

Where [5] appears, read: [^3 H](+)-pentazocine approx. 0.5 nM, 37° C., 150 min.
Setting [6] is: at 10 μM, [^3 H](+)-pentazocine approx. 0.5 nM, 37° C., 150 min.

As a reminder, the Ki is a measure of affinity in units of concentration, obtained from inhibition or displacement. Higher therefore signals lower affinity. What is called minimal effective dose is the lowest level tested that produced the effect sought. One may read the inhibition as the percentage by which the read-out fell short of the control.

Molecules are shown by their SMILES. Structures can show the parent of a compound that is named as a salt. Where two headings read alike, the source gives them in different places.

T1 sequence (Q60492 whole entry): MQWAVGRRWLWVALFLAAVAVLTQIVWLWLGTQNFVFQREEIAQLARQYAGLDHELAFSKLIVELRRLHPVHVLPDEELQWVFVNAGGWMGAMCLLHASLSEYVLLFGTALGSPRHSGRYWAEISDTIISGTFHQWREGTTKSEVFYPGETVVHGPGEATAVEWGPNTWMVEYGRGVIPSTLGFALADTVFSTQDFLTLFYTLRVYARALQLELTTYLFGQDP

Take `CCOC(=O)C1CC2(C)C(C)CC1N(Cc1ccccc1)C2C` (stereo not shown) [Example 2b, ethyl 3,4,8-trimethyl-2-(phenylmethyl)-2-azabicyclo[2.2.2]octane-6-carboxylate]: the Ki in experiment [1] (setting [5]) stood at 242 nM; in experiment [2] it was 240 nM. Moreover, the values for the minimal effective dose in experiment [3] and in experiment [4] were 317 µmol/kg and 951 µmol/kg, respectively.
Turning to `CCOC(=O)C1(C(=O)OCC)CC2(C)C(C)CC1N(Cc1ccccc1)C2C` (stereo not shown) [Example 2c, diethyl 3,4,8-trimethyl-2-(phenylmethyl)-2-azabicyclo-[2.2.2] octane-6,6-dicarboxylate], the inhibition at 10 µM in experiment [1] (setting [6]) was 79%. In experiment [1] (setting [5]), this compound showed a Ki of 1190 nM. In experiment [2], the “Percent Inhibition of [^3 H]DTG binding” value is 79% and the affinity, expressed as Ki, was 1240 nM.
For the compound `CC=C1CC2C(C(=O)OCC)CC1C(Cc1ccccc1)N2Cc1ccccc1` (stereo not shown) [Example 3e, ethyl 2,3-di(phenylmethyl)-8-ethylidene-2-azabicyclo-[2.2.2]octane-6-carboxylatetrihydrochloride hydrobromide], the inhibition at 10 µM in experiment [1] (setting [6]) stood at 33%. Also, the “Percent Inhibition of [^3 H]DTG binding” value in experiment [2] was 57%.
With `CCC1CC2C(C(C)(C)O)CC1C(Cc1ccccc1)N2C` (stereo not drawn) [Example 4e, 3-(phenylmethyl)-8-ethyl-2,α,α-trimethyl-2-azabicyclo[2.2.2]octane-6-methanol], the inhibition at 10 µM in experiment [1] (setting [6]) stood at 72%. Besides, the Ki in experiment [1] (setting [5]) turned out to be 2960 nM; in experiment [2], 2880 nM. In experiment [2], the “Percent Inhibition of [^3 H]DTG binding” value is on record as 75%.
As for `CCOC(=O)C1CC23CCCCC2CC1N(Cc1ccccc1)C3C` (stereo not shown) [Example 5e, Ethyl 2,3,4,4a,5,6,7,8-octahydro-1-methyl-2-(phenylmethyl)-1H-3,8a-ethanoisoquinoline-10-carboxylate hydrochloride], the Ki in experiment [1] (setting [5]) came to 332 nM; in experiment [2], 357 nM. Further, in experiment [1], the inhibition at 10 µM is 97%.
For the compound `CCOC(=O)C1(SC)CC2(C)C(C)CC1N(C)C2C` (stereo not shown) [Example 6, ethyl 2,3,4,8-tetramethyl-6-(methylthio)-2-azabicyclo[2.2.2]octane-6-carboxylate], the inhibition at 10 µM in experiment [1] (setting [6]) came to 63%. Moreover, the Ki in experiment [1] (setting [5]) turned out to be 5950 nM; in experiment [2] it was 2710 nM. Also, the “Percent Inhibition of [^3 H]DTG binding” value in experiment [2] is 75%.
In the case of `CC1CC2C(C(C)(C)O)CC1(C)C(C)N2Cc1ccccc1` (stereo not drawn) [Example 7, α,α,3,4,8-pentamethyl-2-(phenylmethyl)-2-azabicyclo[2.2.2]octane-6-methanol], the inhibition at 10 µM in experiment [1] (setting [6]) worked out at 59%. Moreover, the Ki in experiment [1] (setting [5]) came to 6060 nM; in experiment [2], 6110 nM.
`CCOC(=O)C1(C)CC2(C)C(C)CC1N(Cc1ccccc1)C2C` (stereo not shown) [Example 8a, ethyl 2-(phenylmethyl)-3,4,6,8-tetramethyl-2-azabicyclo[2.2.2]octane-6-carboxylate] gave a Ki in experiment [1] (setting [5]) of 9820 nM. In experiment [2], the “Percent Inhibition of [^3 H]DTG binding” value is 29% and the Ki was 6470 nM.
For the compound `CC(=O)C1(C)CC2(C)C(C)CC1N(Cc1ccccc1)C2C` (stereo not shown) [Example 8b, 1-[3,4,6,8-tetramethyl-2-(phenylmethyl) -2-azabicyclo[2.2.2]oct-6-yl]ethanone], the inhibition at 10 µM in experiment [1] (setting [6]) amounted to 47%. Moreover, the inhibition constant (Ki) is 8880 nM in experiment [1] (setting [5]) and 4560 nM in experiment [2]. For the same compound, the “Percent Inhibition of [^3 H]DTG binding” value in experiment [2] was 65%.
Regarding `CCOC(=O)C1CC2C(C)NC1CC2C(C)C` (stereo not shown) [Example 9e, ethyl 3-methyl-8-isopropyl-2-azabicyclo-[2.2.2]octane-6-carboxylate], the inhibition at 10 µM in experiment [1] stood at 30%. In addition, the “Percent Inhibition of [^3 H]DTG binding” value in experiment [2] is on record as 48%.
`CCOC(=O)C1CC2C(C(C)C)CC1N(Cc1ccccc1)C2C` (stereo not shown) [Example 9f, ethyl 3-methyl-8-(isopropyl)-2-(phenylmethyl)-2-azabicyclo[2.2.2]octane-6-carboxylate]: the Ki in experiment [1] (setting [5]) is 141 nM; in experiment [2] it was 75.5 nM. The minimal effective dose in experiment [3] and in experiment [4] was 304 µmol/kg in each case.
In the case of `CC1CC2C(CO)CC1(C)C(C)N2C` (stereo not shown) [Example 10, 2,3,4,8-tetramethyl-2-azabicyclo[2.2.2]octane-6-methanol], the inhibition at 10 µM in experiment [1] came out at 24%. Further, the “Percent Inhibition of [^3 H]DTG binding” value in experiment [2] stood at 48%.
Take `CC(=O)C1CC2C(C(C)C)CC1N(Cc1ccccc1)C2C` (stereo not shown) [Example 11b, 1-[3-methyl-8-isopropyl-2-(phenylmethyl)-2-azabicyclo[2.2.2]octan-6-yl]-ethanone]: the inhibition at 10 µM in experiment [1] (setting [6]) was 77%. Also, affinity in experiment [1] (setting [5]) was put at a Ki of 2620 nM. In experiment [2], the “Percent Inhibition of [^3 H]DTG binding” value is on record as 86% and the Ki was 1010 nM.

Values taken from US5240935A, “Substituted 2-azabicyclo[2.2.2]octane derivatives and compositions and method of use thereof” (Sterling Winthrop Inc., priority 1992, dated 1993).
